# Test results from patent publication US20070179162A1, “Triazolopyrimdines” (priority 2003, published 2007).
# Columns and labels:
# [1] = logP determination through HPLC (gradient method, acetonitrile/0.1% aqueous phosphoric acid); type: physicochemical
# [2] = tested on: Alternaria solani; test: Alternaria test (tomato)/protective; type: in vivo; conditions: tomato plants, protective, applied quantity 750 g/ha, analysis 7 days after inoculation; 100% = no infection
# Method: Alternaria Test (Tomato)/Protective Solvent: 49 parts by weight N,N-dimethyl formamide Emulsifier: 1 part by weight alkyl aryl polyglycolether To produce an effective active ingredient preparation, 1 part by weight active ingredient is mixed with the specified quantities of solvent and emulsifier and the concentrate is diluted using water to the desired concentration. To test for protective activity, young tomato plants are sprayed with the active ingredient preparation in the specified applied quantity. 1 day after the treatment, the plants are inoculated with a spore suspension of Alternaria solani and then stand 24 hours at 100% relative humidity and 20° C. The plants are then stand at 96% relative humidity and a temperature of 20° C. The analysis is performed 7 days after the inoculation. In this case, 0% means an activity which corresponds to that of the control, while an activity of 100% means that no infection is observed.
smiles,measurement,setting,value
"CC1CCC(c2c(-c3ncncc3Cl)c(Cl)nc3ncnn23)CC1 (centres unmarked) [Example 1, 5-chloro-6-(5-chloro-4-pyrimidinyl)-7-(4-methylcyclohexyl)[1,2,4]triazolo[1,5-a]pyrimidine]",chromatographic logP,[1],3.27
same,activity,[2],100%
